Assay results: ChEMBL document CHEMBL4152250, “Antibacterial and anti-TB tat-peptidomimetics with improved efficacy and half-life” (Eur J Med Chem, 2018)
Converted amounts (≈) assume the structure as drawn. The source made the active and inactive calls. The calls are words filed in the database; no cut-off is given here. Numbered stars: 1 amine (or outer) side, 2 acyl side, 3 side chain; on linkers, the order of the positions; unused ones are H or OH. Square brackets hold non-standard residues; d marks the D form. Peptide text beside a SMILES is read from it. Pro(N-(CH2)3Gua,cis-4-NH-) = N=C(N)NCCCN1C[C@@H](N[*:1])C[C@H]1C(=O)[*:2]; X1 = NCCCN1C[C@@H](N[*:1])C[C@H]1C(=O)[*:2]; Ethylenediamine = C(CN[*:2])N[*:1]; βAla = NCCC(=O)O

Experiments:
[1] = Drug degradation assessed as bovine pancreas chymotrypsin-mediated compound hydrolysis by measuring remaining compound levels at 10 mM measured at 0.5 hrs by RP-HPLC method; assay type: ADME, Bos taurus; conditions: cattle, read-out: Stability
[2] = Drug degradation assessed as pepsin (unknown origin)-mediated compound hydrolysis by measuring remaining compound levels at 8 hrs by RP-HPLC method; assay type: ADME; conditions: human, read-out: Stability
[3] = tested on: Staphylococcus epidermidis; assay: Antibacterial activity against Staphylococcus epidermidis NCIM 5270 after 12 hrs by serial dilution method; assay type: functional, organism-based; conditions: NCIM 5270, 12 h
[4] = Drug degradation assessed as bovine pancreas chymotrypsin-mediated compound hydrolysis by measuring remaining compound levels at 10 mM measured at 24 hrs by RP-HPLC method; assay type: ADME, Bos taurus; conditions: cattle, read-out: Stability
Bacillus subtilis = assay: Antibacterial activity against Bacillus subtilis NCIM 2079 after 12 hrs by serial dilution method; assay type: functional, organism-based; conditions: NCIM 2079, 12 h
[5] = Drug degradation assessed as pepsin (unknown origin)-mediated compound hydrolysis by measuring remaining compound levels at 12 hrs by RP-HPLC method; assay type: ADME; conditions: human, read-out: Stability
[6] = Drug degradation assessed as bovine pancreas chymotrypsin-mediated compound hydrolysis by measuring remaining compound levels at 10 mM measured at 4 hrs by RP-HPLC method; assay type: ADME, Bos taurus; conditions: cattle, read-out: Stability
[7] = Drug degradation assessed as bovine pancreas chymotrypsin-mediated compound hydrolysis by measuring remaining compound levels at 10 mM measured at 18 hrs by RP-HPLC method; assay type: ADME, Bos taurus; conditions: cattle, read-out: Stability
[8] = Drug degradation assessed as pepsin (unknown origin)-mediated compound hydrolysis by measuring remaining compound levels at 0.5 hrs by RP-HPLC method; assay type: ADME; conditions: human, read-out: Stability
[9] = tested on: Mycobacterium tuberculosis; assay: Antitubercular activity against dormant stage of Mycobacterium tuberculosis H37Ra ATCC 25177 after 12 days by XRMA; assay type: functional, organism-based; conditions: H37Ra ATCC 25177, 288 h
[10] = Drug degradation assessed as bovine pancreas chymotrypsin-mediated compound hydrolysis by measuring remaining compound levels at 10 mM measured at 12 hrs by RP-HPLC method; assay type: ADME, Bos taurus; conditions: cattle, read-out: Stability
[11] = Drug degradation assessed as pepsin (unknown origin)-mediated compound hydrolysis by measuring remaining compound levels at 2 hrs by RP-HPLC method; assay type: ADME; conditions: human, read-out: Stability
Enterobacter sp. = assay: Antibacterial activity against Enterobacter sp. NCIM 5392 after 8 hrs by serial dilution method; assay type: functional, organism-based; conditions: NCIM 5392, 8 h
[12] = Drug degradation assessed as bovine pancreas chymotrypsin-mediated compound hydrolysis by measuring remaining compound levels at 10 mM measured at 2 hrs by RP-HPLC method; assay type: ADME, Bos taurus; conditions: cattle, read-out: Stability
[13] = Drug degradation assessed as pepsin (unknown origin)-mediated compound hydrolysis by measuring remaining compound levels at 18 hrs by RP-HPLC method; assay type: ADME; conditions: human, read-out: Stability
Escherichia coli [14] = assay: Antibacterial activity against Escherichia coli NCIM 2688 after 8 hrs by serial dilution method; assay type: functional, organism-based; conditions: NCIM 2688, 8 h
Staphylococcus aureus [15] = assay: Antibacterial activity against Staphylococcus aureus NCIM 2010 after 12 hrs by serial dilution method; assay type: functional, organism-based; conditions: NCIM 2010, 12 h
[16] = Drug degradation assessed as bovine pancreas chymotrypsin-mediated compound hydrolysis by measuring remaining compound levels at 10 mM measured at 8 hrs by RP-HPLC method; assay type: ADME, Bos taurus; conditions: cattle, read-out: Stability
[17] = Cytotoxicity against human HeLa cells assessed as cell viability at 1 to 10 uM after 24 hrs by MTT assay relative to control; assay type: cell-based; conditions: read-out: Activity
Pseudomonas aeruginosa = assay: Antibacterial activity against Pseudomonas aeruginosa NCIM 2036 after 8 hrs by serial dilution method; assay type: functional, organism-based; conditions: NCIM 2036, 8 h
[18] = Drug degradation assessed as bovine pancreas chymotrypsin-mediated compound hydrolysis by measuring remaining compound levels at 10 mM measured at 1 hr by RP-HPLC method; assay type: ADME, Bos taurus; conditions: cattle, read-out: Stability
[19] = tested on: Mycobacterium tuberculosis; assay: Antitubercular activity against active stage of Mycobacterium tuberculosis H37Ra ATCC 25177 after 8 days by XRMA; assay type: functional, organism-based; conditions: H37Ra ATCC 25177, 192 h
[20] = Drug degradation assessed as pepsin (unknown origin)-mediated compound hydrolysis by measuring remaining compound levels at 4 hrs by RP-HPLC method; assay type: ADME; conditions: human, read-out: Stability
[21] = Drug degradation assessed as bovine pancreas chymotrypsin-mediated compound hydrolysis by measuring compound half life at 10 mM by RP-HPLC method; assay type: ADME, Bos taurus; conditions: cattle
[22] = Drug degradation assessed as pepsin (unknown origin)-mediated compound hydrolysis by measuring remaining compound levels at 1 hr by RP-HPLC method; assay type: ADME; conditions: human, read-out: Stability
[23] = Drug degradation assessed as pepsin (unknown origin)-mediated compound hydrolysis by measuring remaining compound levels at 24 hrs by RP-HPLC method; assay type: ADME; conditions: human, read-out: Stability
Staphylococcus aureus [24] = assay: Disruption of cell wall in Staphylococcus aureus NCIM 2010 at MIC after 60 mins by transmission electron microscopic method; assay type: functional, organism-based
Staphylococcus aureus [25] = assay: Antibacterial activity against Staphylococcus aureus NCIM 2010 assessed as decrease in bacterial viability at 10 ug/ml after 4 hrs by SYTO9/propidium iodide staining-based fluorescence microscopic method; assay type: functional, organism-based
[26] = tested on: Mycobacterium tuberculosis; assay: Disruption of cell wall in dormant stage of Mycobacterium tuberculosis H37Ra ATCC 25177 at MIC after 60 mins by transmission electron microscopic method; assay type: functional, organism-based
[27] = tested on: Mycobacterium tuberculosis; assay: Disruption of cell wall in active stage of Mycobacterium tuberculosis H37Ra ATCC 25177 at MIC after 60 mins by transmission electron microscopic method; assay type: functional, organism-based
Escherichia coli [28] = assay: Disruption of cell wall in Escherichia coli NCIM 2688 at MIC after 60 mins by transmission electron microscopic method; assay type: functional, organism-based
Erythrocyte = assay: Hemolytic activity in human RBC at 1 to 40 uM after 1 hr; assay type: ADME, cell-based

| SMILES | remaining at 0.5 h, 10000 µM [1] [%] | remaining at 8 h [2] [%] | IC50 [3] [nM] | MIC [3] [µM] | remaining at 24 h, 10000 µM [4] [%] | IC50 (Bacillus subtilis) [nM] | MIC (Bacillus subtilis) [µM] | IC50 [9] [nM] | IC50 (Enterobacter sp.) [nM] | MIC (Enterobacter sp.) [µM] | IC50 (Escherichia coli [14]) [nM] | MIC (Escherichia coli [14]) [µM] | IC50 (Staphylococcus aureus [15]) [nM] | MIC (Staphylococcus aureus [15]) [µM] | viability at 24 h, up to 10 µM [17] [%] | IC50 (Pseudomonas aeruginosa) [nM] | MIC (Pseudomonas aeruginosa) [µM] | IC50 [19] [nM] | MIC [9] [µM] | MIC [19] [µM] | further results |
| --- | --- | --- | --- | --- | --- | --- | --- | --- | --- | --- | --- | --- | --- | --- | --- | --- | --- | --- | --- | --- | --- |
| CC(=O)N[C@@H](Cc1ccccc1)C(=O)NCC(=O)N[C@@H](CCCNC(=N)N)C(=O)N[C@@H](CCCCN)C(=O)N[C@@H](CCCCN)C(=O)N[C@@H](CCCNC(=N)N)C(=O)N[C@@H](CCCNC(=N)N)C(=O)N[C@@H](CCC(N)=O)C(=O)N[C@@H](CCCNC(=N)N)C(=O)N[C@@H](CCCNC(=N)N)C(=O)N[C@@H](CCCNC(=N)N)C(N)=O | 86.7 | 90.6 | 6.9 | 5.78 (≈ 9.16 µg/mL) | 15.9 | 12 | 3.34 (≈ 5.29 µg/mL) | 40000 | 24 | 21.6 (≈ 34.2 µg/mL) | 10.1 | 6.27 (≈ 9.94 µg/mL) | 11.3 | 9.91 (≈ 15.7 µg/mL) | ≥ 80 | 26.5 | 7.46 (≈ 11.8 µg/mL) | > 60000 |  |  | remaining at 12 h [5]: 89%; remaining at 4 h, 10000 µM [6]: 82.6%; remaining at 18 h, 10000 µM [7]: 75.1%; remaining at 0.5 h [8]: 94.6%; remaining at 12 h, 10000 µM [10]: 78.2%; remaining at 2 h [11]: 93.1%; remaining at 2 h, 10000 µM [12]: 84.6%; remaining at 18 h [13]: 82.1%; remaining at 8 h, 10000 µM [16]: 79.6%; remaining at 1 h, 10000 µM [18]: 86%; remaining at 4 h [20]: 93%; half-life at 10000 µM [21]: 4 h; remaining at 1 h [22]: 94.2%; remaining at 24 h [23]: 80.6% |
| CC(=O)N[C@@H](Cc1ccccc1)C(=O)NCC(=O)N[C@H]1C[C@@H](C(=O)N[C@@H](CCCCN)C(=O)N[C@@H](CCCCN)C(=O)N[C@@H](CCCNC(=N)N)C(=O)N[C@H]2C[C@@H](C(=O)N[C@@H](CCC(N)=O)C(=O)N[C@H]3C[C@@H](C(=O)N[C@@H](CCCNC(=N)N)C(=O)N[C@H]4C[C@@H](C(=O)NCCC(N)=O)N(CCCNC(=N)N)C4)N(CCCNC(=N)N)C3)N(CCCNC(=N)N)C2)N(CCCNC(=N)N)C1 | 100 | 100 | 4.2 | 1.12 (≈ 2.1 µg/mL) | 100 | 3.7 | 0.71 (≈ 1.33 µg/mL) | 3700 | 4.2 | 1.35 (≈ 2.53 µg/mL) | 5.3 | 1.12 (≈ 2.1 µg/mL) | 6.4 | 1.26 (≈ 2.36 µg/mL) | ≥ 80 | 4.2 | 0.61 (≈ 1.14 µg/mL) | 6200 | 36.3 (≈ 68.1 µg/mL) | 43.9 (≈ 82.4 µg/mL) | Activity (Staphylococcus aureus [24]): Active; Activity (Staphylococcus aureus [25]): Active; remaining at 12 h [5]: 100%; remaining at 4 h, 10000 µM [6]: 100%; remaining at 18 h, 10000 µM [7]: 100%; remaining at 0.5 h [8]: 100%; remaining at 12 h, 10000 µM [10]: 100%; remaining at 2 h [11]: 100%; Activity [26]: Active; remaining at 2 h, 10000 µM [12]: 100%; remaining at 18 h [13]: 100%; Activity [27]: Active; Activity (Escherichia coli [28]): Active; remaining at 8 h, 10000 µM [16]: 100%; remaining at 1 h, 10000 µM [18]: 100%; remaining at 4 h [20]: 100%; half-life at 10000 µM [21]: 16 h; Activity (Erythrocyte): Non-Toxic; remaining at 1 h [22]: 100%; remaining at 24 h [23]: 100% |
| CC(=O)N[C@@H](Cc1ccccc1)C(=O)NCC(=O)N[C@@H](CCCNC(=N)N)C(=O)N[C@@H](CCCCN)C(=O)N[C@@H](CCCCN)C(=O)N[C@@H](CCCNC(=N)N)C(=O)N[C@@H](CCCNC(=N)N)C(=O)N[C@@H](CCC(N)=O)C(=O)N[C@@H](CCCNC(=N)N)C(=O)N[C@@H](CCCNC(=N)N)C(=O)N[C@H]1C[C@@H](C(=O)NCCC(N)=O)N(CCCNC(=N)N)C1 (Ac-FGRKKRRQRR[Pro(N-(CH2)3Gua,cis-4-NH-)][βAla]-NH2) |  |  | 10 | 4.92 (≈ 8.42 µg/mL) |  | 9.3 | 3.56 (≈ 6.09 µg/mL) | 1970 | 13 | 18.9 (≈ 32.3 µg/mL) | 8 | 5.71 (≈ 9.77 µg/mL) | 7 | 8.47 (≈ 14.5 µg/mL) | ≥ 80 | 9.3 | 3.35 (≈ 5.73 µg/mL) | 2420 | 18.4 (≈ 31.5 µg/mL) | 27.6 (≈ 47.2 µg/mL) | Activity (Staphylococcus aureus [24]): Active; Activity (Escherichia coli [28]): Active |
| CC(=O)N[C@@H](Cc1ccccc1)C(=O)NCC(=O)N[C@H]1C[C@@H](C(=O)N[C@@H](CCCCN)C(=O)N[C@@H](CCCCN)C(=O)N[C@@H](CCCNC(=N)N)C(=O)N[C@H]2C[C@@H](C(=O)N[C@@H](CCC(N)=O)C(=O)N[C@H]3C[C@@H](C(=O)N[C@@H](CCCNC(=N)N)C(=O)N[C@H]4C[C@@H](C(=O)NCCN)N(CCCN)C4)N(CCCN)C3)N(CCCN)C2)N(CCCN)C1 (Ac-FG[X1]KKR[X1]Q[X1]R[X1]-Ethylenediamine) |  |  | 7 | 3.94 (≈ 6.62 µg/mL) |  | 5.8 | 3.79 (≈ 6.37 µg/mL) | 1420 | 11 | 4.51 (≈ 7.58 µg/mL) | 7 | 2.34 (≈ 3.93 µg/mL) | 13.4 | 3.02 (≈ 5.07 µg/mL) | ≥ 80 | 7 | 2.2 (≈ 3.7 µg/mL) | 4920 | 18.3 (≈ 30.7 µg/mL) | 34.4 (≈ 57.8 µg/mL) |  |
